Test results from patent publication US7595398B2, “N-(5-membered aromatic ring)-amido anti-viral compounds” (SmithKline Beecham Corporation, priority 2005, dated 2009).

What follows are compounds tested on HCV replicon I389luc-ubi-neo/NS3-3′/ET in ET (Huh-lucubineo-ET) cells; screening for HCV RNA dependent RNA polymerase (assay: Replicon Assay (luciferase, ET cell line Huh-lucubineo-ET)). Conditions: Hepatitis C virus; inhibition of replication relative to no compound control; test concentration of 10 μM according to the fitted equation; luciferase 48-72 hours.
Format: cell-based
In short: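 Huh-derived ET cells stably carrying an I389luc-ubi-neo/NS3-3′/ET HCV replicon with a luciferase-ubiquitin-neomycin phosphotransferase fusion and adaptive NS3-5B mutations were cultured in DMEM with 10% fetal calf serum and 250 μg/mL G418. Cells were seeded at 0.5-1.0×10^4 cells/well in 96 well plates and given compound after 24 hrs. Luciferase was read 48-72 hours later with Bright-Glo reagents, and replication inhibition was expressed relative to untreated controls.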

Question: Which inhibition at 10 µM does the source give for `O=C(NCCCN1CCOCC1)c1ccc(-c2csc(NC(=O)[C@@H]3CCCN3C(=O)OCc3ccccc3)n2)cc1` [Compound 5324, 2-{4-[4-(3-Morpholin-4-yl-propylcarbamoyl)-phenyl]-thiazol-2-ylcarbamoyl}-pyrrolidine-1-carboxylic acid benzyl ester] here?
Answer: Its inhibition at 10 µM is 100%.

Question: With `O=C(NC1CC1)c1ccc(-c2csc(NC(=O)[C@@H]3CCCN3C(=O)Cc3ccccc3)n2)cc1` [Compound 5325, 1-Phenylacetyl-pyrrolidine-2-carboxylic acid [4-(4-cyclopropylcarbamoyl-phenyl)-thiazol-2-yl]-amide] as the compound, how does the inhibition at 10 µM read?
Answer: The inhibition at 10 µM was 86.9%.

Question: `CC(C)(C)NC(=O)c1ccc(-c2csc(NC(=O)[C@@H]3CCCN3C(=O)OCc3ccccc3)n2)cc1` [Compound 5326, 2-[4-(4-tert-Butylcarbamoyl-phenyl)-thiazol-2-ylcarbamoyl]-pyrrolidine-1-carboxylic acid benzyl ester] was tested. Which inhibition at 10 µM did it give?
Answer: Its inhibition at 10 µM is 100%.

Question: `O=C(NC1CC1)c1ccc(-c2csc(NC(=O)[C@@H]3CSCN3C(=O)OCc3ccccc3)n2)cc1` [Compound 5327, 4-[4-(4-Cyclopropylcarbamoyl-phenyl)-thiazol-2-ylcarbamoyl]-thiazolidine-3-carboxylic acid benzyl ester] was tested. Which inhibition at 10 µM did it give?
Answer: Its inhibition at 10 µM is 100%.

Question: Which inhibition at 10 µM does the source give for `CN(C(=O)c1ccc(-c2csc(NC(=O)[C@@H]3CCCN3C(=O)OCc3ccccc3)n2)cc1)c1ccccc1` [Compound 5328, 2-{4-[4-(Methyl-phenyl-carbamoyl)-phenyl]-thiazol-2-ylcarbamoyl}-pyrrolidine-1-carboxylic acid benzyl ester] here?
Answer: The inhibition at 10 µM was 97.3%.

Question: For `O=C(Nc1nc(-c2ccc(NS(=O)(=O)C3CC3)cc2)cs1)[C@@H]1CCCN1C(=O)OCc1ccccc1` [Compound 5329, 2-[4-(4-Cyclopropanesulfonylamino-phenyl)-thiazol-2-ylcarbamoyl]-pyrrolidine-1-carboxylic acid benzyl ester], which inhibition at 10 µM is on record?
Answer: The inhibition at 10 µM was 97%.

Question: For `O=C(Nc1nc(-c2ccc(NCC3CC3)cc2)cs1)[C@@H]1CCCN1C(=O)OCc1ccccc1` [Compound 5330, 2-{4-[4-(Cyclopropylmethyl-amino)-phenyl]-thiazol-2-ylcarbamoyl}-pyrrolidine-1-carboxylic acid benzyl ester], which inhibition at 10 µM is on record?
Answer: Its inhibition at 10 µM is 98.8%.

Question: With `CN(C(=O)c1ccc(-c2csc(NC(=O)[C@@H]3CCCN3C(=O)OCc3ccccc3)n2)cc1)C1CCCCC1` [Compound 5332, 2-{4-[4-(Cyclohexyl-methyl-carbamoyl)-phenyl]-thiazol-2-ylcarbamoyl}-pyrrolidine-1-carboxylic acid benzyl ester] as the compound, how does the inhibition at 10 µM read?
Answer: The inhibition at 10 µM was 99.7%.

Question: With `CC(C)(C)OC(=O)N1CCS[C@H]1C(=O)Nc1nc(-c2ccc(C(=O)NC3CC3)cc2)cs1` [Compound 5334, 2-[4-(4-Cyclopropylcarbamoyl-phenyl)-thiazol-2-ylcarbamoyl]-thiazolidine-3-carboxylic acid tert-butyl ester] as the compound, how does the inhibition at 10 µM read?
Answer: The inhibition at 10 µM was 99.9%.

Question: Which inhibition at 10 µM does the source give for `O=C(Nc1nc(-c2cccc(NCC3CC3)c2)cs1)[C@@H]1CCCN1C(=O)OCc1ccccc1` [Compound 5335, 2-{4-[3-(Cyclopropylmethyl-amino)-phenyl]-thiazol-2-ylcarbamoyl}-pyrrolidine-1-carboxylic acid benzyl ester] here?
Answer: The inhibition at 10 µM was 92.5%.

Question: With `CC(C)(C)OC(=O)N1CCC(NC(=O)c2ccc(-c3csc(NC(=O)[C@@H]4CCCN4C(=O)OCc4ccccc4)n3)cc2)CC1` [Compound 5336, 4-(4-{2-[(1-Benzyloxycarbonyl-pyrrolidine-2-carbonyl)-amino]-thiazol-4-yl}-benzoylamino)-piperidine-1-carboxylic acid tert-butyl ester] as the compound, how does the inhibition at 10 µM read?
Answer: The inhibition at 10 µM was 96.3%.

Question: How did the inhibition at 10 µM turn out when `O=C(NC1CNC1)c1ccc(-c2csc(NC(=O)[C@@H]3CCCN3C(=O)OCc3ccccc3)n2)cc1` [Compound 5337, 2-{4-[4-(Azetidin-3-ylcarbamoyl)-phenyl]-thiazol-2-ylcarbamoyl}-pyrrolidine-1-carboxylic acid benzyl ester] was run?
Answer: The inhibition at 10 µM was 100%.

Question: For `O=C(Nc1nc(-c2cccnc2)cs1)[C@@H]1CCCN1C(=O)OCc1ccccc1` [Compound 5338, 2-(4-Pyridin-3-yl-thiazol-2-ylcarbamoyl)-pyrrolidine-1-carboxylic acid benzyl ester], which inhibition at 10 µM is on record?
Answer: Its inhibition at 10 µM is 75.2%.

Question: How did the inhibition at 10 µM turn out when `O=C(NCCN1CCOCC1)c1ccc(-c2csc(NC(=O)C3CCCN3C(=O)OCc3ccccc3)n2)cc1` (stereo not shown) [Compound 5339, 2-{4-[4-(2-Morpholin-4-yl-ethylcarbamoyl)-phenyl]-thiazol-2-ylcarbamoyl}-pyrrolidine-1-carboxylic acid benzyl ester] was run?
Answer: The inhibition at 10 µM was 100%.

Question: Which inhibition at 10 µM does the source give for `O=C(NC1CC1)c1ccc(-c2csc(NC(=O)[C@@H]3CCCN3C(=O)NCc3ccccc3)n2)cc1` [Compound 5342, Pyrrolidine-1,2-dicarboxylic acid 1-benzylamide 2-{[4-(4-cyclopropylcarbamoyl-phenyl)-thiazol-2-yl]-amide}] here?
Answer: The inhibition at 10 µM was 95.2%.

Question: With `O=C(NC1CCCNC1)c1ccc(-c2csc(NC(=O)C3CCCN3C(=O)OCc3ccccc3)n2)cc1` (stereo not shown) [Compound 5343, 2-{4-[4-(Piperidin-3-ylcarbamoyl)-phenyl]-thiazol-2-ylcarbamoyl}-pyrrolidine-1-carboxylic acid benzyl ester] as the compound, how does the inhibition at 10 µM read?
Answer: The inhibition at 10 µM was 100%.

Question: Which inhibition at 10 µM does the source give for `O=C(Nc1nc(-c2ccco2)cs1)[C@@H]1CCCN1C(=O)OCc1ccccc1` [Compound 5347, 2-(4-Furan-2-yl-thiazol-2-ylcarbamoyl)-pyrrolidine-1-carboxylic acid benzyl ester] here?
Answer: The inhibition at 10 µM was 94.7%.

Question: For `O=C(NC1CC1)c1ccc(-c2csc(NC(=O)[C@H]3CCCN3C(=O)OCc3ccccc3)n2)cc1` [Compound 5349, 2-[4-(4-Cyclopropylcarbamoyl-phenyl)-thiazol-2-ylcarbamoyl]-pyrrolidine-1-carboxylic acid benzyl ester], which inhibition at 10 µM is on record?
Answer: Its inhibition at 10 µM is 28.6%.

Question: For `O=C(NC1CC1)c1ccc(-c2csc(NC(=O)[C@@H]3SCCN3C(=O)OCc3ccccc3)n2)cc1` [Compound 5350, 2-[4-(4-Cyclopropylcarbamoyl-phenyl)-thiazol-2-ylcarbamoyl]-thiazolidine-3-carboxylic acid benzyl ester], which inhibition at 10 µM is on record?
Answer: The inhibition at 10 µM was 100%.

Question: For `O=C(NC1CC1)c1ccc(-c2csc(NC(=O)[C@@H]3CCCN3C(=O)OCc3ccccc3)n2)o1` [Compound 5351, 2-[4-(5-Cyclopropylcarbamoyl-furan-2-yl)-thiazol-2-ylcarbamoyl]-pyrrolidine-1-carboxylic acid benzyl ester], which inhibition at 10 µM is on record?
Answer: The inhibition at 10 µM was 22.3%.

Question: Which inhibition at 10 µM does the source give for `O=C(NC1CC1)c1ccc(-c2cnc(NC(=O)[C@@H]3CCCN3C(=O)OCc3ccccc3)s2)cc1` [Compound 5352, 2-[5-(4-Cyclopropylcarbamoyl-phenyl)-thiazol-2-ylcarbamoyl]-pyrrolidine-1-carboxylic acid benzyl ester] here?
Answer: The inhibition at 10 µM was 7.07%.

Question: Which inhibition at 10 µM does the source give for `O=C(O)c1ccc(-c2cnc(NC(=O)[C@@H]3CCCN3C(=O)OCc3ccccc3)s2)cc1` [Compound 5353, 2-[5-(4-Carboxy-phenyl)-thiazol-2-ylcarbamoyl]-pyrrolidine-1-carboxylic acid benzyl ester] here?
Answer: The inhibition at 10 µM was 50.2%.

Question: Which inhibition at 10 µM does the source give for `O=C(Nc1nc(-c2ccc(S(=O)(=O)NC3CCCC3)cc2)cs1)C1CCCN1C(=O)OCc1ccccc1` (stereo not shown) [Compound 5354, 2-[4-(4-Cyclopentylsulfamoyl-phenyl)-thiazol-2-ylcarbamoyl]-pyrrolidine-1-carboxylic acid benzyl ester] here?
Answer: The inhibition at 10 µM was 87.5%.

Question: For `O=C(NC1CC1)c1ccc(-c2csc(NC(=O)[C@@H]3CCCN3C(=O)OCc3ccccc3)n2)nc1` [Compound 5355, 2-[4-(5-Cyclopropylcarbamoyl-pyridin-2-yl)-thiazol-2-ylcarbamoyl]-pyrrolidine-1-carboxylic acid benzyl ester], which inhibition at 10 µM is on record?
Answer: Its inhibition at 10 µM is 99.9%.

Question: `O=C(NC1CCNCC1)c1ccc(-c2csc(NC(=O)C3CCCN3C(=O)OCc3ccccc3)n2)cc1` (stereo not shown) [Compound 5356, 2-{4-[4-(Piperidin-4-ylcarbamoyl)-phenyl]-thiazol-2-ylcarbamoyl}-pyrrolidine-1-carboxylic acid benzyl ester] was tested. Which inhibition at 10 µM did it give?
Answer: The inhibition at 10 µM was 100%.

Question: How did the inhibition at 10 µM turn out when `O=C(NC1CC1)c1ccc(-c2csc(NC(=O)C3CCCN3C(=O)CCc3ccccc3)n2)cc1` (stereo not shown) [Compound 5358, 1-(3-Phenyl-propionyl)-pyrrolidine-2-carboxylic acid [4-(4-cyclopropylcarbamoyl-phenyl)-thiazol-2-yl]-amide] was run?
Answer: The inhibition at 10 µM was 84.8%.

Question: How did the inhibition at 10 µM turn out when `CC(C)(C)c1csc(NC(=O)[C@@H]2CCCN2C(=O)OCc2ccccc2)n1` [Compound 5360, 2-(4-tert-Butyl-thiazol-2-ylcarbamoyl)-pyrrolidine-1-carboxylic acid benzyl ester] was run?
Answer: The inhibition at 10 µM was 54%.

Question: With `O=C(NC1CC1)c1ccc(-c2csc(NC(=O)[C@@H]3CCCN3C(=O)OCc3ccc(F)cc3)n2)cc1` [Compound 5361, 2-[4-(4-Cyclopropylcarbamoyl-phenyl)-thiazol-2-ylcarbamoyl]-pyrrolidine-1-carboxylic acid 4-fluoro-benzyl ester] as the compound, how does the inhibition at 10 µM read?
Answer: Its inhibition at 10 µM is 98.4%.

Question: With `COC(=O)c1sc(NC(=O)[C@@H]2CCCN2C(=O)OCc2ccccc2)nc1-c1ccc(C(=O)NC2CC2)cc1` [Compound 5362, 2-[(1-Benzyloxycarbonyl-pyrrolidine-2-carbonyl)-amino]-4-(4-cyclopropylcarbamoyl-phenyl)-thiazole-5-carboxylic acid methyl ester] as the compound, how does the inhibition at 10 µM read?
Answer: Its inhibition at 10 µM is 98.7%.

Question: Which inhibition at 10 µM does the source give for `O=C(NC1CCCC1)c1cccc(-c2cnc(NC(=O)[C@@H]3CCCN3C(=O)OCc3ccccc3)s2)c1` [Compound 5363, 2-[5-(3-Cyclopentylcarbamoyl-phenyl)-thiazol-2-ylcarbamoyl]-pyrrolidine-1-carboxylic acid benzyl ester] here?
Answer: The inhibition at 10 µM was 1.64%.

Question: How did the inhibition at 10 µM turn out when `O=C(Nc1nc(-c2ccc(C(=O)N3CCOCC3)cc2)cs1)C1CCCN1C(=O)OCc1ccccc1` (stereo not shown) [Compound 5364, 2-{4-[4-(Morpholine-4-carbonyl)-phenyl]-thiazol-2-ylcarbamoyl}-pyrrolidine-1-carboxylic acid benzyl ester] was run?
Answer: The inhibition at 10 µM was 4.49%.
